Experimental data: patent publication US20140274683A1, “COMPOSITIONS AND METHODS FOR REPELLING POLLINATING INSECTS AND PROTECTING PLANTS AND CROPS AGAINST INSECTS AND/OR NEMATODES” (Bayer CropScience LP, priority 2013, published 2014)

Tests used:
Honeybees = assay: Honeybee repulsion experiment at feeding stations with 50% sucrose; format: in vivo; conditions: 2% by weight in combination with 50% sucrose, feeding station
Protocol: FIG. 1 describes the feeding station arrangement (A and B) for the honeybee repulsion experiments described herein. As set forth in FIG. 1, panel (A) sets forth the bee cage positions on the left portion of panel (A) with the randomized feeding station positions on the right portion of panel (A). Panel (B) sets forth an alignment of the randomized feeding station positions with a distance of two meters between feeding stations. A total of eight feeding stations were evaluated at a ten meter distance in front of the respective bee hives. The feeding stations were placed two meters apart from one another.
Honeybees were trained to deep feeders (eight positions), each containing a 50% sucrose solution for one day. After the honeybees were trained to each feeder, the 50% sucrose feeder at randomized positions 1-8 was replaced with a shallow feeder containing a combination of repelling compounds and a 50% sucrose solution according to Table 5. In accordance with FIGS. 5 and 6, 2% by weight of Camphor oil (T4), Ajowan oil (T5), Camphor powder (T6), Rosemary oil (T7), and 2-Decanone (T8) in combination with a 50% sucrose treatment were added to feeders on day two.
Table 5 describes active agents evaluated for bee repulsion and their randomized feeding station positions. As described in Table 5, T1 (control), T2 (control), T3 (control), T4 (Camphor oil), T5 (Ajowan oil), T6 (Camphor powder), T7 (Rosemary oil), and T8 (2-Decanone).
FIG. 5 evaluates the number of bees visiting a respective feed station over a time interval. FIG. 6 sets forth the mean number of honeybees visiting feeding station over a period of four hours.

[1] = Stability test of Poncho 600 combined with α-terpineol, clothianidin content by HPLC; format: physicochemical; conditions: combined with alpha-terpineol, up to 54° C. for eight days
Protocol: Table 7 describes a stability test with a combination of α-terpineol and Poncho 600 evaluated at room temperature, 40° C., and 54° C. at zero time, 2 days, and 8 days as confirmed by HPLC.

[2] = Stability test of Poncho combined with Eugenol, clothianidin content by HPLC; format: physicochemical; conditions: up to 54° C. for seven days
Protocol: Table 6 describes a stability test with a combination of Eugenol and Poncho evaluated at room temperature, 40° C., and 54° C. at zero time, 3 days, and 7 days as confirmed by high performance liquid chromatography (HPLC).

SMILES	Honeybee repellency over the 4 hour assessment period (Honeybees; 4 hour assessment period)	Honeybee repellency at 24 hours (Honeybees)	Honeybee repellency at 24 hours (Honeybees; listed as 2-decanone)	Chemical stability of clothianidin content in Poncho [1]	Chemical stability of clothianidin content in Poncho [2]
CCCCCCCCC(C)=O [Compound 2-Decanone, 2-decanone]	highly repellent	exhibited repellency	still repellent		
CN/C(=N\[N+](=O)[O-])NCc1cnc(Cl)s1 [clothianidin]				exhibited chemical stability	exhibited chemical stability
